What follows are compounds tested against human PD-L1 (Homo sapiens (Human), UniProt Q9NZQ7) (assay: T cell activation luciferase reporter cell culture system (T Cell Activation Assay)). Settings: luciferase reporter assay; PD-L1 aAPC/CHO-K1 cells with PD-1 effector Jurkat T cells.
Type: cell-based

Chain of human PD-L1 (Q9NZQ7 19-290): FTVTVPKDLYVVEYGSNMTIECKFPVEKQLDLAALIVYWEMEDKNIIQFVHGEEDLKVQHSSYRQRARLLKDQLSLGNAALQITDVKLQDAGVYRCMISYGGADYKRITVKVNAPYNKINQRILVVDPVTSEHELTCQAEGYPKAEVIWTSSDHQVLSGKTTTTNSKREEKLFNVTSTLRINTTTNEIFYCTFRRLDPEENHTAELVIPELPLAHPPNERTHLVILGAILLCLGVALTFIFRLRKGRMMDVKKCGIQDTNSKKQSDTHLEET

Point of comparison: `COc1nc(-c2cccc(-c3ccnc(-c4ccc(CNC5CCN(CCO)CC5)c(OC(F)F)c4)c3Cl)c2Cl)ccc1CNC1CCN(CCO)CC1` [Example 620, 2-(4-(((6-(2-Chloro-3-(3-chloro-2-(3-(difluoromethoxy)-4-(((1-(2-hydroxyethyl)piperidin-4-yl)amino)methyl)phenyl)pyridin-4-yl)phenyl)-2-methoxypyridin-3-yl)methyl)amino)piperidin-1-yl)ethan-1-ol], EC50 44.9 nM. Against it:
- COc1cc(-c2cccc(-c3ccnc(-c4ccc5c(c4)CN(CCNC[C@@H]4CCC(=O)N4)C5=O)c3Cl)c2Cl)cc(F)c1CNC[C@@H]1CCC(=O)N1 [Example 242, 5-(3-Chloro-4-(2-chloro-3′-fluoro-5′-methoxy-4′-(((((S)-5-oxopyrrolidin-2-yl)methyl)amino)methyl)-[1,1′-biphenyl]-3-yl)pyridin-2-yl)-2-(2-((((S)-5-oxopyrrolidin-2-yl)methyl)amino)ethyl)isoindolin-1-one] — 9.7-fold higher, 437 nM
- COc1cc(-c2nccc(-c3cccc(-c4cc(Cl)c(CNC[C@@H]5CCC(=O)N5)c(OC)n4)c3Cl)c2Cl)cc2c1CN(C[C@@H]1CCC(=O)N1)CC2 [Cmpd 37, (S)-5-((6-(3-chloro-4-(2-chloro-3-(4-chloro-6-methoxy-5-(((((S)-5-oxopyrrolidin-2-yl)methyl)amino)methyl)pyridin-2-yl)phenyl)pyridin-2-yl)-8-methoxy-3,4-dihydroisoquinolin-2(1H)-yl)methyl)pyrrolidin-2-one] — 1.8-fold lower, 25.6 nM
- CNCc1ccc(-c2nccc(-c3cccc(-c4ccc(CNC)c(OC)n4)c3C)c2Cl)cc1OC [Example 395, 1-(6-(3-(3-Chloro-2-(3-methoxy-4-((methylamino)methyl)phenyl)pyridin-4-yl)-2-methylphenyl)-2-methoxypyridin-3-yl)-N-methylmethanamine] — 1.8-fold higher, 81.8 nM
- COc1cc(-c2ncnc(-c3cccc(-c4ccc(CNCCO)c(OC)n4)c3Cl)c2OC)ccc1CNCCO [Example 728, 2-((4-(6-(2-Chloro-3-(5-(((2-hydroxyethyl)amino)methyl)-6-methoxypyridin-2-yl)phenyl)-5-methoxypyrimidin-4-yl)-2-methoxybenzyl)amino)ethan-1-ol] — higher, ≥ 10000 nM
- COc1cc(-c2nccc(-c3cccc(-c4ccc(CNC5CCN(C(=O)CO)CC5)c(OC)n4)c3Cl)c2Cl)ccc1CN[C@H]1CC[C@H](O)CC1 [Example 539, 1-(4-(((6-(2-Chloro-3-(3-chloro-2-(4-((((1r,4r)-4-hydroxycyclohexyl)amino)methyl)-3-methoxyphenyl)pyridin-4-yl)phenyl)-2-methoxypyridin-3-yl)methyl)amino)piperidin-1-yl)-2-hydroxyethan-1-one] — within 1.5-fold, 31.8 nM
- COc1cc(-c2nccc(-c3cccc(-c4ccc(CNC5CCN(C(C)=O)CC5)c(OC)n4)c3C(F)(F)F)c2Cl)ccc1CNC1CCN(C(C)=O)CC1 [Example 528, 1-(4-(((6-(3-(2-(4-(((1-Acetylpiperidin-4-yl)amino)methyl)-3-methoxyphenyl)-3-chloropyridin-4-yl)-2-(trifluoromethyl)phenyl)-2-methoxypyridin-3-yl)methyl)amino)piperidin-1-yl)ethan-1-one] — higher, ≥ 10000 nM
- COc1cc(-c2nccc(-c3cccc4c3CC[C@@H]4Nc3nc(OC)c(CN4CC5(C4)CN(C(C)=O)C5)nc3C(F)(F)F)c2Cl)ccc1CN1CC2(C1)CN(C(C)=O)C2 [Example 367, (S)-1-(6-((5-((4-(2-(4-((6-Acetyl-2,6-diazaspiro[3.3]heptan-2-yl)methyl)-3-methoxyphenyl)-3-chloropyridin-4-yl)-2,3-dihydro-1H-inden-1-yl)amino)-3-methoxy-6-(trifluoromethyl)pyrazin-2-yl)methyl)-2,6-diazaspiro[3.3]heptan-2-yl)ethan-1-one] — 9.2-fold higher, 412 nM
- COc1cc(-c2nccc(-c3cccc(-c4ccc(CNC5CCN(C(=O)N(C)C)CC5)c(OC)n4)c3Cl)c2Cl)ccc1CNC1CCN(C(=O)N(C)C)CC1 [Example 419, 4-(((6-(2-Chloro-3-(3-chloro-2-(4-(((1-(dimethylcarbamoyl)piperidin-4-yl)amino)methyl)-3-methoxyphenyl)pyridin-4-yl)phenyl)-2-methoxypyridin-3-yl)methyl)amino)-N,N-dimethylpiperidine-1-carboxamide] — 2.3-fold lower, 19.5 nM
- COc1cc(-c2nccc(-c3cccc(NC(=O)c4ccc(CNC[C@@H]5CCC(=O)N5)cn4)c3C)c2Cl)ccc1CNC1CCN(C(C)=O)CC1 [Example 747, (S)—N-(3-(2-(4-(((1-acetylpiperidin-4-yl)amino)methyl)-3-methoxyphenyl)-3-chloropyridin-4-yl)-2-methylphenyl)-5-((((5-oxopyrrolidin-2-yl)methyl)amino)methyl)picolinamide] — 18-fold higher, 825 nM
- COc1cc(-c2nccc(-c3cccc(-c4ccc(CNC[C@@H]5CCC(=O)N5)c(OC)n4)c3Cl)c2Cl)cc2c1CN(CC(O)C(C)C)CC2 (stereo partly drawn) [Cmpd 53, (5S)-5-((((6-(2-chloro-3-(3-chloro-2-(2-(2-hydroxy-3-methylbutyl)-8-methoxy-1,2,3,4-tetrahydroisoquinolin-6-yl)pyridin-4-yl)phenyl)-2-methoxypyridin-3-yl)methyl)amino)methyl)pyrrolidin-2-one] — 8.9-fold higher, 399 nM
- COc1cc(-c2nccc(-c3cccc(-c4ccc(CNCCCF)c(OC)n4)c3Cl)c2Cl)ccc1CNCCCF [Example 534, N-((6-(2-Chloro-3-(3-chloro-2-(4-(((3-fluoropropyl)amino)methyl)-3-methoxyphenyl)pyridin-4-yl)phenyl)-2-methoxypyridin-3-yl)methyl)-3-fluoropropan-1-amine] — within 1.5-fold, 56.7 nM
- COc1cc(-c2nccc(-c3cccc(-c4ccc(CNC[C@@H]5CCC(=O)N5)c(OC)n4)c3Cl)c2Cl)ccc1CNC1CCN(C(C)=O)CC1 [Cmpd 109, (S)-5-((((6-(3-(2-(4-(((1-acetylpiperidin-4-yl)amino)methyl)-3-methoxyphenyl)-3-chloropyridin-4-yl)-2-chlorophenyl)-2-methoxypyridin-3-yl)methyl)amino)methyl)pyrrolidin-2-one] — 1.6-fold lower, 27.9 nM
- COc1cc(-c2nccc(-c3cccc(-c4ccc(CNC[C@@H]5CCC(=O)N5)c(OC)n4)c3Cl)c2Cl)cc(F)c1CNC[C@@H]1CCC(=O)N1 [Cmpd 10, (S)-5-((((6-(2-chloro-3-(3-chloro-2-(3-fluoro-5-methoxy-4-(((((S)-5-oxopyrrolidin-2-yl)methyl)amino)methyl)phenyl)pyridin-4-yl)phenyl)-2-methoxypyridin-3-yl)methyl)amino)methyl)pyrrolidin-2-one] — 2.1-fold lower, 20.9 nM
- COc1cc(-c2nccc(-c3cccc(-c4ccc(CNC[C@@H]5CCC(=O)N5)c(OC)n4)c3Cl)c2Cl)ccc1CNC1CCS(=O)(=O)CC1 [Cmpd 126, (S)-5-((((6-(2-chloro-3-(3-chloro-2-(4-(((1,1-dioxidotetrahydro-2H-thiopyran-4-yl)amino)methyl)-3-methoxyphenyl)pyridin-4-yl)phenyl)-2-methoxypyridin-3-yl)methyl)amino)methyl)pyrrolidin-2-one] — within 1.5-fold, 36.8 nM
- COc1nc(-c2cccc(-c3ccnc(-c4cc(F)c5c(c4)CN(CC(C)(C)O)CC5)c3Cl)c2Cl)ccc1CNC[C@@H]1CCC(=O)N1 [Cmpd 47, (S)-5-((((6-(2-chloro-3-(3-chloro-2-(5-fluoro-2-(2-hydroxy-2-methylpropyl)-1,2,3,4-tetrahydroisoquinolin-7-yl)pyridin-4-yl)phenyl)-2-methoxypyridin-3-yl)methyl)amino)methyl)pyrrolidin-2-one] — 220-fold higher, 10000 nM
- COc1cc(-c2nccc(-c3ccnc(-c4cc(F)c(CN5CC6(CNC(=O)C6)C5)c(OC)c4)c3Cl)c2Cl)cc(F)c1CN1CC2(CNC(=O)C2)C1 [Compound 323, 2,2′-(((3,3′-Dichloro-[4,4′-bipyridine]-2,2′-diyl)bis(2-fluoro-6-methoxy-4,1-phenylene))bis(methylene))bis(2,6-diazaspiro[3.4]octan-7-one)] — 3.7-fold higher, 164 nM
- COc1cc(-c2nccc(-c3cccc(-c4ccc(CNCC(F)F)c(OC)n4)c3Cl)c2Cl)ccc1CNCC(F)F [Example 505, N-((6-(2-Chloro-3-(3-chloro-2-(4-(((2,2-difluoroethyl)amino)methyl)-3-methoxyphenyl)pyridin-4-yl)phenyl)-2-methoxypyridin-3-yl)methyl)-2,2-difluoroethan-1-amine] — higher, ≥ 10000 nM
- COc1cc(-c2nccc(-c3cccc(NC(=O)c4ccc(CNC5CCN(C(C)=O)CC5)cn4)c3Cl)c2Cl)ccc1CNC1CCN(C(C)=O)CC1 [Example 673, 5-(((1-Acetylpiperidin-4-yl)amino)methyl)-N-(3-(2-(4-(((1-acetylpiperidin-4-yl)amino)methyl)-3-methoxyphenyl)-3-chloropyridin-4-yl)-2-chlorophenyl)picolinamide] — 5.2-fold higher, 234 nM
- COc1cc(-c2nccc(-c3cccc(-c4ccc(CNC[C@@H]5CCC(=O)N5)c(OC)n4)c3Cl)c2Cl)ccc1CNCCO [Cmpd 70, (S)-5-((((6-(2-chloro-3-(3-chloro-2-(4-(((2-hydroxyethyl)amino)methyl)-3-methoxyphenyl)pyridin-4-yl)phenyl)-2-methoxypyridin-3-yl)methyl)amino)methyl)pyrrolidin-2-one] — within 1.5-fold, 49.4 nM
- COc1cc(-c2nccc(-c3cccc(-c4ccc(CNC[C@@H]5CCC(=O)N5)c(OC)n4)c3Cl)c2Cl)cc(F)c1CNC[C@@H](C)O [Cmpd 81, (S)-5-((((6-(2-chloro-3-(3-chloro-2-(3-fluoro-4-((((R)-2-hydroxypropyl)amino)methyl)-5-methoxyphenyl)pyridin-4-yl)phenyl)-2-methoxypyridin-3-yl)methyl)amino)methyl)pyrrolidin-2-one] — within 1.5-fold, 31.4 nM
- CCOc1cc(-c2nccc(-c3cccc(-c4ccc(CNC5CCN(C(C)=O)CC5)c(OC)n4)c3Cl)c2Cl)cn2nc(CN[C@H]3CC[C@H](O)CC3)nc12 [Example 583, 1-(4-(((6-(2-Chloro-3-(3-chloro-2-(8-ethoxy-2-((((1r,4r)-4-hydroxycyclohexyl)amino)methyl)-[1,2,4]triazolo[1,5-a]pyridin-6-yl)pyridin-4-yl)phenyl)-2-methoxypyridin-3-yl)methyl)amino)piperidin-1-yl)ethan-1-one] — higher, ≥ 10000 nM

Source: patent publication US20240246964A1 (Arbutus Biopharma Corporation, priority 2021, published 2024)
